Measured values taken from patent US11279703B2, “Fused pyrimidine compounds as BRD4 and JAK2 dual inhibitors and methods for use thereof” (APTOSE BIOSCIENCES INC., priority 2016, dated 2022).

Columns and labels:
BRD4-BD1 = BRD4-BD1 (Homo sapiens (Human), UniProt O60885); experiment: AlphaLisa bromodomain binding assay, BRD4-BD1; conditions: Table 6; read-out: BRD4(1) IC50
Source text: An AlphaLisa assay was used to observe bromodomain binding and measure IC50s for the compounds disclosed herein. An AlphaLisa assay is a bead-based assay used to detect interactions between bromodomains and polyacetylated histone peptides. Donor and acceptor beads bound to target and ligand are brought into proximity by this protein-protein interaction.
Equipment Required • 1. […] Plate centrifuge • 3. Plate shaker • 4. […] Single channel and multi-channel pipettes • 6. Microplate reader (Pherastar)
(§1) Stock and Final Assay Concentrations (FAC) • 1. All reference and test compounds are made at a concentration of 10 mM in DMSO. Compounds are serially diluted in DMSO and a FAC starting from 10 μM to 10 point 3 fold serial dilutions is arrived. FAC of DMSO is 1%. • 2. Enzyme stock and FAC
Biotinylated substrate (Acetylated histone H4, biotinylated substrate—cat no. AS64989-025, Anaspec) stock and FAC
• 4. Acceptor and donor beads stock and FAC
Buffers • For the enzyme and substrate dilution following buffer is used (for 50 ml) • HEPES: 50 mM 2.5 ml • NaCl: 25 mM 1.25 ml • DTT: 10 mM 0.05 ml • BSA: 0.1% 0.05 g • MilliQ water: 45.7 ml • For dilution of acceptor and donor beads AlphaLISA 5× epigenetics Buffer Perkin Elmer (Cat: AL008C) is used at 1× concentration.
Procedure • 1. […] Tap the plate gently • 3. […] Cover with plate sealer • 5. […] Incubate the plate at room temperature for 10 minutes • 7. Add 10 μl of the substrate • 8. Cover with plate sealer • 9. […] Cover with plate sealer • 14. […] Cover with plate sealer • 18.
(§2) The percent inhibition is calculated in the excel analysis template and the IC50 values are subsequently determined using a sigmoidal dose-response curve (variable slope) using GraphPad Prism® 5 software.

JAK2 = JAK2 (Homo sapiens (Human), UniProt O60674); experiment: HTRF kinase assay, JAK2; format: biochemical
Source text: A kinase assay with HTRF was used to observe JAK activity and calculate the IC50s of compounds disclosed herein. HTRF is an enzymatic assay used to determine the amount of phosphorylated peptide. FRET (Fluorescence Resonance Energy Transfer) is based on the transfer of energy between two fluorophores—a donor and an acceptor—when in close proximity. Molecular interactions between biomolecules can be assessed by coupling each partner with a fluorescent label and by detecting the level of energy transfer. The amount of phopshorylated peptide can be detected using a combination of a Eu 3+Cryptate labeled anti-phospho residue antibody, SA-XL665 and a biotinylated substrate. The signal is proportional to the concentration of phospho-residues.
Equipment Required • 1. […] Plate centrifuge • 3. Plate shaker • 4. […] Single channel and multi-channel pipettes • 6. Microplate reader (Pherastar)]
as §1, with “arrived. For Ruxolitinib the starting FAC is 1 μM.” for “arrived.”
• JAK-1: Invtirogen Cat: PR8767C • JAK-2: Invtirogen Cat: PR7820B • JAK-3: Invtirogen Cat: PR7507B • 3. Substrate (synthetic peptide-Biotinylated-N-terminal tag-[…] from Biopeptide) stock and FAC
• Adenosine 5′-triphosphate disodium salt hydrate: Sigma Cat: A26209 • 5. […] Buffers • Base buffer (for 50 ml)
• HTRF buffer: • 50 mM Tris-HCl, pH—7.5 • 100 mM NaCl • 0.1% BSA • 0.05% Tween20 • 0.5 mM EDTA
To a 384 well black-plate: • 1. Add 17 μL of the buffer to each well of the 384-well black plate • 2. […] Add 5 μl of the enzyme to each well of the plate • 4. Add 10 μl of the substrate and ATP mix to all the wells • 5. Cover with plate sealer • 6. […] Incubate at room temperature for 1 hour on shaker • 8. […] Add 37.5 μL of the HTRF mix to these wells. • 9. Incubate the plate at room temperature on shaker for 45 minutes. • 10.
as §2

Sequence of JAK2 (O60674 whole entry): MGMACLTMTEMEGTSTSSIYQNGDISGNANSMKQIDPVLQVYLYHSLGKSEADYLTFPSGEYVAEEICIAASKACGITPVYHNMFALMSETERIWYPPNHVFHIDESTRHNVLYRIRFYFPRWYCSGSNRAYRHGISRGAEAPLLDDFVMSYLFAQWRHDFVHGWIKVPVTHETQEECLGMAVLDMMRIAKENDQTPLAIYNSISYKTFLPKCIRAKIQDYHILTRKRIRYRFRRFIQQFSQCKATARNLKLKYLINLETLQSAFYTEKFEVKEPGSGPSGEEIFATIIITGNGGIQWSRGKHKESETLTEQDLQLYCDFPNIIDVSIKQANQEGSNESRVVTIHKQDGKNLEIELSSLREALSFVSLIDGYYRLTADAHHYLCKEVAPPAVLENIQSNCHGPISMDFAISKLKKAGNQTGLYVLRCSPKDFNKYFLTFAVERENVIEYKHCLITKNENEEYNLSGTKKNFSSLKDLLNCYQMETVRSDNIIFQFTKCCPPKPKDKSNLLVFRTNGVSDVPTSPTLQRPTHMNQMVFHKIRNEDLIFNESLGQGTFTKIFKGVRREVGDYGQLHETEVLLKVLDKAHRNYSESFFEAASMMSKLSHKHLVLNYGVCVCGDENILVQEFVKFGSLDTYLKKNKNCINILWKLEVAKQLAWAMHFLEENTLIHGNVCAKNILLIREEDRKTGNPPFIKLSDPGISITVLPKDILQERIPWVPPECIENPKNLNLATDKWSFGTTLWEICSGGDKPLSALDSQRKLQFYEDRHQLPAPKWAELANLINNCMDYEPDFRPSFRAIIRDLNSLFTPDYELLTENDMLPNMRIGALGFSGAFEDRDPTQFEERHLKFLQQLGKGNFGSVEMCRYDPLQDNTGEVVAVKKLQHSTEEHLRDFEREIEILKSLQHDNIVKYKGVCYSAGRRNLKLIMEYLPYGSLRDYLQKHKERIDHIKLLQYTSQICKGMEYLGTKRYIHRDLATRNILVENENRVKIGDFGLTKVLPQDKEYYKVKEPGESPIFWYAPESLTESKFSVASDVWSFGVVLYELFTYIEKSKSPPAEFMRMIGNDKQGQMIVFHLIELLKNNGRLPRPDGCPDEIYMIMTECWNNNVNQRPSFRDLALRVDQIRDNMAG

Row | Structure (SMILES) | IC50 (BRD4-BD1) [nM] | IC50 (JAK2; Table 6) [nM] | IC50 (JAK2; Table 3) [nM] | IC50 (JAK2; Table 4) [nM]
1 | CC(C)(C)S(=O)(=O)Nc1cccc(-n2ccc3cnc(Nc4ccc5c(c4)CC4CNCCN54)nc32)c1 (centres unmarked) [drawing 411] | 306 | 13 |  | 
2 | O=S(=O)(Nc1cccc(-n2ccc3cnc(Nc4ccc(N5CCNCC5)cc4)nc32)c1)C1CC1 [drawing 320] | 451 | 6 |  | 
3 | Cc1cnc(Nc2ccc(N3CCN(C)CC3)cc2)nc1Nc1cccc(NS(=O)(=O)C(C)(C)C)c1 [drawing 375] | 316 | 9.3 |  | 
4 | CC(C)(C)S(=O)(=O)Nc1cccc(Nc2nc(NC3CCNCC3)nc3sccc23)c1 [drawing 267] | 590 | 10000 |  | 
5 | CN1CCC(NC(=O)c2ccc(Nc3ncc4ccn(-c5ccc(F)c(NS(=O)(=O)C(C)(C)C)c5)c4n3)cc2F)CC1 [drawing 363] | 134 | 130 |  | 
6 | Cc1ccc(-n2ccc3cnc(Nc4ccc(N5CCN(C)CC5)cc4)nc32)cc1NS(=O)(=O)C1CC1 | 3060 | 19.7 |  | 
7 | CN1CCN2c3ccc(Nc4ncc5ccn(-c6ccc(F)c(NS(=O)(=O)C(C)(C)C)c6)c5n4)cc3CC2C1 (centres unmarked) | 321 | 137 |  | 
8 | CN(C)CC1CCN(c2ccc(Nc3ncc4ccn(-c5ccc(F)c(NS(=O)(=O)C(C)(C)C)c5)c4n3)cc2F)CC1 | 143 | 83 |  | 
9 | CN1CCN(c2ccc(Nc3nc(Nc4ccc(Cl)c(NS(=O)(=O)C(C)(C)C)c4)c4sccc4n3)cc2)CC1 | 2680 | 10000 |  | 
10 | CN1CCN(c2ccc(Nc3ncc4ccn(-c5cccc(NS(=O)(=O)C6CC6)c5)c4n3)cc2)CC1 [drawing 64] |  |  | 4.3 | 
11 | CN(C)C1CCN2c3ccc(Nc4ncc5ccn(-c6cccc(NS(=O)(=O)C(C)(C)C)c6)c5n4)cc3CC2C1 (centres unmarked) [drawing 444] | 268 | 8 |  | 
12 | O=S(=O)(Nc1cccc(-n2ccc3cnc(Nc4ccc(N5CCNCC5)cc4)nc32)c1)C1CC1 [drawing 68] |  |  | 5 | 
13 | Cc1cc(Nc2ncc3ccn(-c4cccc(NS(=O)(=O)C(C)(C)C)c4)c3n2)ccc1N1CCN(C)CC1 | 722 | 11 |  | 
14 | CN(C)C1CCN(c2ccc(Nc3ncc4ccn(-c5cccc(NS(=O)(=O)C(C)(C)C)c5)c4n3)cc2F)CC1 [drawing 385] | 131 | 3 |  | 
15 | Cc1ccc(-n2ccc3cnc(Nc4ccc(N5CCNCC5)cc4)nc32)cc1NS(=O)(=O)C(C)(C)C | 641 | 176 |  | 
16 | NC(=O)N1CCN(c2ccc(Nc3ncc4ccn(-c5cccc(NS(=O)(=O)C6CC6)c5)c4n3)cc2)CC1 | 10000 | 11 |  | 
17 | CC(C)(C)S(=O)(=O)Nc1cc(-n2ccc3cnc(Nc4ccc(N5CCC(C(=O)O)CC5)c(F)c4)nc32)ccc1F | 1100 | 120 |  | 
18 | CN1CCN(c2ccc(Nc3ncc4ccn(-c5cccc(NS(=O)(=O)c6ccccc6)c5)c4n3)cc2)CC1 [drawing 62] |  |  | 3 | 
19 | O=C(NC1CCNCC1)c1ccc(Nc2ncc3ccn(-c4cccc(NS(=O)(=O)C5CC5)c4)c3n2)cc1 | 2100 | 40 |  | 
20 | CN1CCN2c3c(F)cc(Nc4ncc5ccn(-c6ccc(F)c(NS(=O)(=O)C(C)(C)C)c6)c5n4)cc3CC2C1 (centres unmarked) | 383 | 56 |  | 
21 | CN1CCN(c2ccc(Nc3ncc4ccn(-c5ccc6c(c5)CCN6S(=O)(=O)C(C)(C)C)c4n3)cc2)CC1 [drawing 71] |  |  |  | 0.6
22 | CN1CCC(NC(=O)c2ccc(Nc3ncc4ccn(-c5ccc(F)c(NS(=O)(=O)C6CC6)c5)c4n3)cc2F)CC1 | 776 | 35 |  | 
23 | CNC1CCN(C(=O)c2ccc(Nc3ncc4ccn(-c5cccc(NS(=O)(=O)C(C)(C)C)c5)c4n3)cc2F)CC1 | 234 | 29 |  | 
24 | COc1cc(Nc2ncc3ccn(-c4cccc(NS(=O)(=O)C(C)(C)C)c4)c3n2)ccc1N1CCC(N(C)C)CC1 | 421 | 2 |  | 
25 | COc1nc(Nc2ccc(N3CCN(C)CC3)cc2)nc2c1ccn2-c1cccc(NS(=O)(=O)C(C)(C)C)c1 | 5160 | 10000 |  | 

Row | Structure (SMILES) | IC50 (BRD4-BD1) [nM] | IC50 (JAK2; Table 6) [nM] | IC50 (JAK2; Table 3) [nM] | IC50 (JAK2; Table 4) [nM]
26 | COc1cccc(Nc2nccc(-c3cccc4c3CC(=O)N4)n2)c1 |  | 2250 |  | 
27 | CN1CCN(c2ccc(Nc3nc(-n4ccc(C(=O)NC5CC5)c4)c4ccsc4n3)cc2F)CC1 | 10000 | 10000 |  | 
28 | CN1CCC(NC(=O)c2ccc(Nc3ncc4ccn(-c5ccc(F)c(NS(=O)(=O)C(C)(C)C)c5)c4n3)cc2)CC1 | 372 | 177 |  | 
29 | CN1CCN(C(=O)Cc2ccc(Nc3ncc4ccn(-c5cccc(NS(=O)(=O)C6CC6)c5)c4n3)cc2)CC1 | 4010 | 182 |  | 
30 | Cc1cnc(Nc2ccc(N3CCN(C)CC3)cc2)nc1Nc1cccc(NS(=O)(=O)C(C)(C)C)c1 [drawing 196] | 180 | 10 |  | 
31 | CC(C)(C)S(=O)(=O)Nc1cccc(-n2ccc3cnc(Nc4ccc(N5CCNCC5)c(F)c4)nc32)c1 [drawing 432] | 174 | 8 |  | 
32 | CNC1CCN(c2ccc(Nc3ncc4scc(-c5cccc(NS(=O)(=O)C(C)(C)C)c5)c4n3)cc2F)CC1 | 431 | 2 |  | 
33 | CNC1CCN(c2ccc(Nc3ncc4ccn(-c5cccc(NS(=O)(=O)C(C)(C)C)c5)c4n3)cc2)C1 (centres unmarked) | 538 | 17 |  | 
34 | CN(C)C1CCN2c3ccc(Nc4ncc5ccn(-c6cccc(NS(=O)(=O)C(C)(C)C)c6)c5n4)cc3CC2C1 (centres unmarked) [drawing 445] | 105 | 12 |  | 
35 | COc1cc(Nc2ncc3ccn(-c4cccc(NS(=O)(=O)C5CC5)c4)c3n2)ccc1N1CCN(C)CC1 | 1810 | 15 |  | 
36 | CC(C)(C)S(=O)(=O)Nc1cccc(-n2ccc3cnc(Nc4cc(F)c5c(c4)CC4CNCCN54)nc32)c1 (centres unmarked) | 300 | 6 |  | 
37 | CN1CCN(c2ccc(Nc3ncc4scc(-c5ccc(F)c(NS(=O)(=O)C(C)(C)C)c5)c4n3)cc2F)CC1 | 228 | 36 |  | 
38 | CN1CCC(Nc2nc(Nc3cccc(N(C)S(=O)(=O)C(C)(C)C)c3)c3ccsc3n2)CC1 | 940 | 10000 |  | 
39 | CN1CCN(c2ccc(Nc3ncc4scc(-c5cccc(NS(=O)(=O)C(C)(C)C)c5)c4n3)cc2)CC1 |  |  | 4.8 | 
40 | CN1CCN(c2ccc(Nc3nccc(Nc4cccc5c4CC(=O)N5)n3)cc2)CC1 |  | 387 |  | 
41 | Cc1cnc(Nc2ccc(N3CCN(C)CC3)cc2)nc1-n1ccc(C(=O)NC2CC2)c1 |  | 30 |  | 
42 | CN(C)C1CCN(c2ccc(Nc3ncc4ccn(-c5cccc(NS(=O)(=O)C(C)(C)C)c5)c4n3)cc2F)CC1 [drawing 65] |  |  | 4.4 | 
43 | O=C1Cc2c(cccc2-c2ccnc(Nc3ccccc3)n2)N1 |  | 6780 |  | 
44 | CN1CCN(c2ccc(Nc3ncc4ccn(-c5ccc(CNS(=O)(=O)C(C)(C)C)cc5)c4n3)cc2)CC1 [drawing 70] |  |  |  | 0.18
45 | CN1CCN(c2ccc(Nc3ncc4ccn(-c5ccc(NS(=O)(=O)C(C)(C)C)cc5)c4n3)cc2)CC1 [drawing 69] |  |  |  | 0.7
46 | O=S(=O)(Nc1cccc(-n2ccc3cnc(Nc4ccc(N5CCNCC5)cc4)nc32)c1)C1CC1 [drawing 63] |  |  | 2 | 
47 | CN1CCN(c2ccc(Nc3ncc4ccn(-c5cccc(NS(=O)(=O)C6CC6)c5)c4n3)cc2)CC1 [drawing 61] |  |  | 2.5 | 
48 | CC(=O)N1CCN(c2ccc(Nc3ncc4ccn(-c5cccc(NS(=O)(=O)C(C)(C)C)c5)c4n3)cc2)CC1 |  | 45 |  | 
49 | Cc1sc2c(c1C)C(c1ccc(Cl)cc1)=N[C@@H](CC(=O)OC(C)(C)C)c1nnc(C)n1-2 |  | 10000 |  | 
50 | Cc1noc(C)c1-c1cccc(-n2ccc3cnc(Nc4ccc(N5CCN(C)CC5)cc4)nc32)c1 [drawing 67] |  |  | 3 | 
